Measured values: the supplement of paper PMC11208160

Test: recombinant UMI read abundance after kanamycin selection (control-corrected) (log10(CPM+1)); higher = more efficient recombination; extreme values may be limits of the assay; sequences stand for … in AGTGCAGAGAAAATCGGCCAGTTTTCTCTGCCTGCAGTCCGCATGCCGTGGGACCCCTTGGGTTCTAACCTGTTGCCTAGATTTATGCAGCGGACTGCCTTTCTCCCAAAGTGATAAACCGG…AGGTTGGTTTCACT; site = the 11-nt donor
Method in brief: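 Pooled Escherichia coli screen of donor and donor-binding-loop pairs for the IS621 bridge recombinase. Each pair sits with a 12-nt UMI on a plasmid carrying a promoterless kanamycin gene. The library was co-electroporated with a target plasmid encoding a fixed target and T7-inducible recombinase, then plated with IPTG (0.07 mM) plus kanamycin, or unselected, each in two replicates. Recombinant UMIs were PCR-amplified across the donor–target junction and sequenced. Counts became CPM, averaged over replicates, scaled by control-derived factors and reported as log10(CPM+1).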
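Also: IS621 bridge recombinase in Escherichia coli cells against a fixed T5 target plasmid.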

Sequence	recombinant UMI read abundance (log10)
ATCTATCCATGGACCGGTTTTCCCGGTAATCCGTATTTGCT (site ATCTATCCTAG)	1.24
ATCTCTGCATGGACCGGTTTTCCCGGTAATCCGTATTTGCT (site ATCTCTGCTAG)	1.73
ATCTGCCCATGGACCGGTTTTCCCGGTAATCCGTATTTGCT (site ATCTGCCCTAG)	0.548
ATCTGCTCATGGACCGGTTTTCCCGGTAATCCGTATTTGGA (site ATCTGCTCTTC)	1.49
ATCTGGGCATGGACCGGTTTTCCCGGTAATCCGTATTTGGT (site ATCTGGGCTAC)	0.162
ATCTTGGCATGGACCGGTTTTCCCGGTAATCCGTATTTGGG (site ATCTTGGCTCC)	0.448
ATGAAGACATGGACCGGTTTTCCCGGTAATCCGTATTTGCA (site AAGAAGACTTG)	1.29
ATGAAGACATGGACCGGTTTTCCCGGTAATCCGTATTTGCA (site ACGAAGACTTG)	2.34
ATGAAGACATGGACCGGTTTTCCCGGTAATCCGTATTTGCA (site AGGAAGACTTG)	1.02
ATGAAGACATGGACCGGTTTTCCCGGTAATCCGTATTTGCA (site ATGAAGACTTG)	2.64
ATGAAGACATGGACCGGTTTTCCCGGTAATCCGTATTTGGA (site AGGAAGACTTG)	0
ATGAAGACATGGACCGGTTTTCCCGGTAATCCGTATTTGGA (site ATGAAGACTTC)	1.52
ATGACAACATGGACCGGTTTTCCCGGTAATCCGTATTTGGA (site ATGACAACTTC)	1.22
ATGACGCCATGGACCGGTTTTCCCGGTAATCCGTATTTGGA (site ATGACGCCTTC)	0.0104
ATGAGCACATGGACCGGTTTTCCCGGTAATCCGTATTTGGC (site ATGAGCACTGC)	2.98
ATGATAACATGGACCGGTTTTCCCGGTAATCCGTATTTGCC (site ATGATAACTGG)	3.06
ATGCAGACATGGACCGGTTTTCCCGGTAATCCGTATTTGTC (site ATGCAGACTGA)	2.43
ATGCCGCCATGGACCGGTTTTCCCGGTAATCCGTATTTGGG (site ATGCCGCCTCC)	0.0227
ATGCGTTCATGGACCGGTTTTCCCGGTAATCCGTATTTGAC (site ATGCGTTCTGT)	2.37

Sequence	recombinant UMI read abundance (log10)
ATGCGTTCATGGACCGGTTTTCCCGGTAATCCGTATTTGCG (site ATGCGTTCTCG)	1.96
ATGCTACCATGGACCGGTTTTCCCGGTAATCCGTATTTGCT (site ATGCTACCTAG)	0
ATGCTACCATGGACCGGTTTTCCCGGTAATCCGTATTTGCT (site CTGCTACCTAG)	0
ATGCTACCATGGACCGGTTTTCCCGGTAATCCGTATTTGCT (site GTGCTACCTAG)	0
ATGCTACCATGGACCGGTTTTCCCGGTAATCCGTATTTGCT (site TTGCTACCTAG)	0
ATGGCAACATGGACCGGTTTTCCCGGTAATCCGTATTTGTG (site ATGGCAACTCA)	0.02
ATGGGCCCATGGACCGGTTTTCCCGGTAATCCGTATTTGTC (site ATGGGCCCTGA)	0.504
ATGGTCGCATGGACCGGTTTTCCCGGTAATCCGTATTTGTT (site ATGGTCGCTAA)	1.29
ATGGTGTCATGGACCGGTTTTCCCGGTAATCCGTATTTGCT (site ATGGTGTCTAG)	3.4
ATGTAGGCATGGACCGGTTTTCCCGGTAATCCGTATTTGGA (site ATGTAGGCTAC)	0.451
ATGTAGGCATGGACCGGTTTTCCCGGTAATCCGTATTTGGA (site ATGTAGGCTCC)	0.209
ATGTAGGCATGGACCGGTTTTCCCGGTAATCCGTATTTGGA (site ATGTAGGCTGC)	1.58
ATGTAGGCATGGACCGGTTTTCCCGGTAATCCGTATTTGGA (site ATGTAGGCTTC)	1
ATGTATACATGGACCGGTTTTCCCGGTAATCCGTATTTGAC (site ATATATACTGT)	2.59
ATGTATACATGGACCGGTTTTCCCGGTAATCCGTATTTGAC (site ATCTATACTGT)	0.457
ATGTATACATGGACCGGTTTTCCCGGTAATCCGTATTTGAC (site ATGTATACTGT)	3.18
ATGTATACATGGACCGGTTTTCCCGGTAATCCGTATTTGAC (site ATTTATACTGT)	0.661
ATGTCCGCATGGACCGGTTTTCCCGGTAATCCGTATTTGCC (site ATGTCCGCTGG)	2.45
ATGTGGGCATGGACCGGTTTTCCCGGTAATCCGTATTTGTA (site ATGTGGGCTTA)	2.32

Sequence	recombinant UMI read abundance (log10)
ATGTTGGCATGGACCGGTTTTCCCGGTAATCCGTATTTGGC (site ATGTAGGCTGC)	1.71
ATGTTGGCATGGACCGGTTTTCCCGGTAATCCGTATTTGGC (site ATGTCGGCTGC)	0.939
ATGTTGGCATGGACCGGTTTTCCCGGTAATCCGTATTTGGC (site ATGTGGGCTGC)	0.332
ATGTTGGCATGGACCGGTTTTCCCGGTAATCCGTATTTGGC (site ATGTTGGCTGC)	2.68
ATTAAGACATGGACCGGTTTTCCCGGTAATCCGTATTTGAA (site ATTAAGACTTT)	1.43
ATTACGACATGGACCGGTTTTCCCGGTAATCCGTATTTGGG (site ATTACGACTCC)	0.00852
ATTATTACATGGACCGGTTTTCCCGGTAATCCGTATTTGCA (site ATTATTACTTG)	1.8
ATTCATGCATGGACCGGTTTTCCCGGTAATCCGTATTTGGT (site ATTCATGCTAC)	0.729
ATTCCATCATGGACCGGTTTTCCCGGTAATCCGTATTTGGA (site ATTCCATCTTC)	0.345
ATTCGTCCATGGACCGGTTTTCCCGGTAATCCGTATTTGGT (site ATTCGTCCTAC)	0.0259
ATTGACACATGGACCGGTTTTCCCGGTAATCCGTATTTGGT (site ATTGAAACTAC)	0.168
ATTGACACATGGACCGGTTTTCCCGGTAATCCGTATTTGGT (site ATTGACACTAC)	0.911
ATTGACACATGGACCGGTTTTCCCGGTAATCCGTATTTGGT (site ATTGAGACTAC)	0.811
ATTGACACATGGACCGGTTTTCCCGGTAATCCGTATTTGGT (site ATTGATACTAC)	0.459
ATTGAGACATGGACCGGTTTTCCCGGTAATCCGTATTTGCT (site ATTGAGACTAA)	0.627
ATTGAGACATGGACCGGTTTTCCCGGTAATCCGTATTTGCT (site ATTGAGACTAC)	0.379
ATTGAGACATGGACCGGTTTTCCCGGTAATCCGTATTTGCT (site ATTGAGACTAG)	2.42
ATTGAGACATGGACCGGTTTTCCCGGTAATCCGTATTTGCT (site ATTGAGACTAT)	0.827
ATTGAGACATGGACCGGTTTTCCCGGTAATCCGTATTTGGC (site ATTGAGACTAC)	0.0133
